Patent publication US7115545B1, “Tricyclic benzoylpyrazole derivatives used as a herbicide” (BASF Aktiengesellschaft, priority 1999, dated 2006)

Assays:
Setaria viridis = assay: greenhouse post-emergence herbicidal test; format: in vivo; details: post-emergence method, application rates of 0.5 or 0.25 kg/ha, Setaria viridis (green foxtail)
Excerpt: (§1) The seeds of the test plants were sown separately for each species. For post-emergence treatment, the test plants were first grown to a plant height of from 3 to 15 cm, depending on the plant habit, and only then treated with the active compounds which had been suspended or emulsified in water. For this purpose, the test plants were either sown directly and grown in the same containers, or they were first grown separately as seedlings and transplanted into the test containers a few days prior to the treatment. The application rate for the post-emergence treatment was 0.5 or 0.25 kg of a.s./ha. Depending on the species, the plants were kept at 10–25° C. or 20–35° C. The test period extended over 2 to 4 weeks. During this time, the plants were tended, and their response to the individual treatments was evaluated. Evaluation was carried out using a scale from 0 to 100. 100 means no emergence of the plants, or complete destruction of at least the above-ground parts, and 0 means no damage, or normal course of growth. The plants used in the greenhouse trials were of the following species: [table]

Echinochloa crusgalli = assay: greenhouse post-emergence herbicidal test; format: in vivo; details: post-emergence method, application rates of 0.5 or 0.25 kg/ha, Echinochloa crusgalli (barnyardgrass)
Excerpt: as §1

Solanum nigrum = assay: greenhouse post-emergence herbicidal test; format: in vivo; details: post-emergence method, application rates of 0.5 or 0.25 kg/ha, Solanum nigrum (black nightshade)
Excerpt: as §1

Chenopodium album = assay: greenhouse post-emergence herbicidal test; format: in vivo; details: post-emergence method, application rates of 0.5 or 0.25 kg/ha, Chenopodium album (lambsquarters)
Excerpt: as §1

Veronica ssp. = assay: greenhouse post-emergence herbicidal test; format: in vivo; details: post-emergence method, application rates of 0.5 or 0.25 kg/ha
Excerpt: as §1

melting point: 86 to 93 °C
Structure (SMILES): Cn1ncc(C(=O)c2ccc(S(C)(=O)=O)c3c2CC2CON=C32)c1OC(=O)c1ccccc1 (stereo not drawn) [compound 2.2, (5-Phenylcarbonyloxy-1-methyl-1H-pyrazol-4-yl)-(8-methyl-sulfonyl-3a,4-dihydro-3H-indeno[1,2-c]isoxazol-5-yl)methanone]
herbicidal activity (Setaria viridis): very good activity | herbicidal activity (Echinochloa crusgalli): very good activity | herbicidal activity (Solanum nigrum): very good activity | herbicidal activity (Chenopodium album): very good activity | herbicidal activity (Veronica ssp.): very good activity
